In ChEMBL document CHEMBL4842357, “Discovery of Novel Apigenin-Piperazine Hybrids as Potent and Selective Poly (ADP-Ribose) Polymerase-1 (PARP-1) Inhibitors for the Treatment of Cancer” (J Med Chem, 2021):

Experiments:
[1] = biological target: Poly [ADP-ribose] polymerase 1 (Homo sapiens, UniProt P09874); test: Inhibition of recombinant human full-length PARP-1 using biotinylated substrate
[2] = biological target: T1, Poly [ADP-ribose] polymerase 2 (Homo sapiens, UniProt Q9UGN5); test: Inhibition of recombinant human full-length PARP-2 using biotinylated substrate
T1 sequence (Q9UGN5 whole entry): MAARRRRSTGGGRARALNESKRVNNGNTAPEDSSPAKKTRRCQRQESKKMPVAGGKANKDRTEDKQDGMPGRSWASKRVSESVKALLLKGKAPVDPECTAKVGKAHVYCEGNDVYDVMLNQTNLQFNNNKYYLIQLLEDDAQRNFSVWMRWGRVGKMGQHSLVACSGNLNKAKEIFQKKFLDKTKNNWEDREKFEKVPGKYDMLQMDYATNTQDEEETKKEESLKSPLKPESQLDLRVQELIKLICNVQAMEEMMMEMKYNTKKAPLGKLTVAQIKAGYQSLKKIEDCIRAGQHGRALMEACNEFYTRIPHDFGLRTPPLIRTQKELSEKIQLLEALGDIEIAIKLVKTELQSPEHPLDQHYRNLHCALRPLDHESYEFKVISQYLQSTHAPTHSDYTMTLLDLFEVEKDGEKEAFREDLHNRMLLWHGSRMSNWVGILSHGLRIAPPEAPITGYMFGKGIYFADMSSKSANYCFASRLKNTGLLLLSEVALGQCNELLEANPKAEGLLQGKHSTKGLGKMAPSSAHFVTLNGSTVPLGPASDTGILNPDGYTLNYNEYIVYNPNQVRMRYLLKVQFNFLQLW

Homo sapiens [3] = species: Homo sapiens; test: Selectivity index, ratio of IC50 for inhibition of recombinant human full-length PARP-2 to IC50 for inhibition of recombinant human full-length PARP-1
[4] = biological target: T1, Poly [ADP-ribose] polymerase 2; test: Inhibition of PARP-2 (unknown origin)
Homo sapiens [5] = species: Homo sapiens; test: Selectivity index, ratio of IC50 for PARP-2 (unknown origin) to IC50 for PARP-1 (unknown origin)

Poly [ADP-ribose] polymerase 1, sequence (P09874 whole entry): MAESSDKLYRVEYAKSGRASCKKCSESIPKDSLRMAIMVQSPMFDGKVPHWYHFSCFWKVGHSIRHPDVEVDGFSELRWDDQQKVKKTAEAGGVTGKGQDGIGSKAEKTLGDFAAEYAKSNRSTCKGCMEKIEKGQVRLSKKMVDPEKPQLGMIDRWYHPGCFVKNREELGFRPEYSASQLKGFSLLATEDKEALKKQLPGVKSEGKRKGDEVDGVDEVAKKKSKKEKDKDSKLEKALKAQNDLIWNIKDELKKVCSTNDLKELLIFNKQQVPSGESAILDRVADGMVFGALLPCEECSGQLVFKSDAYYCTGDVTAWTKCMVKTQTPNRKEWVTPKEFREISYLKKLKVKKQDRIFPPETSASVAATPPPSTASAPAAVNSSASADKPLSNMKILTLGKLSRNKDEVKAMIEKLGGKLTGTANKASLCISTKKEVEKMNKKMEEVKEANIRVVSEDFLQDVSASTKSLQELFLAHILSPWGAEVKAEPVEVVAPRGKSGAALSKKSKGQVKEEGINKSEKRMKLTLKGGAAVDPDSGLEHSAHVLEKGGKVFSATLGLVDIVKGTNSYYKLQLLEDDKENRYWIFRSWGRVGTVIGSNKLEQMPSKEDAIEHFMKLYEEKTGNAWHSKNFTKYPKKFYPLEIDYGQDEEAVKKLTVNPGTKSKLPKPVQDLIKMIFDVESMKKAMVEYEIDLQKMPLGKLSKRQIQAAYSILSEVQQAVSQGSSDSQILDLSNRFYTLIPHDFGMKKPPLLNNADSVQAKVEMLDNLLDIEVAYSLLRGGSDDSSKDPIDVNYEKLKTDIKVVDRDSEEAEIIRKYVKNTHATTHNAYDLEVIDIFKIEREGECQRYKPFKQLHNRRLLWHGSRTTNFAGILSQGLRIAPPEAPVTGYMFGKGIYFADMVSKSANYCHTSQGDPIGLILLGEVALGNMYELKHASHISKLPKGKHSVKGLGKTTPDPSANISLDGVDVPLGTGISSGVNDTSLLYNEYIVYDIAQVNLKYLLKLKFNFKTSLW

SMILES	IC50 [1] [nM]	IC50 [2] [nM]	Ratio IC50 (Homo sapiens [3])	IC50 [4] [nM]	Ratio IC50 (Homo sapiens [5])
O=c1cc(-c2ccc(O)cc2)oc2c(CN3CCN(c4ccc(O)cc4)CC3)c(O)cc(O)c12	39.7	2900	73	–	–
O=C(c1ccccn1)N1CCN(Cc2c(O)cc(O)c3c(=O)cc(-c4ccc(O)cc4)oc23)CC1	21.8	1300	59.6	–	–
O=c1cc(-c2ccc(O)cc2)oc2c(CN3CCN(Cc4ccc(F)cc4)CC3)c(O)cc(O)c12	34.5	2000	58	–	–
O=c1cc(-c2cccc(-c3c(O)cc(O)c4c(=O)cc(-c5ccco5)oc34)c2)oc2cc(O)cc(O)c12	386	14700	38	–	–
COc1ccc(CN2CCN(Cc3c(O)cc(O)c4c(=O)cc(-c5ccc(O)cc5)oc34)CC2)cc1	35.4	2000	56.5	–	–
O=C(c1cccc(F)c1F)C1CCN(Cc2c(O)cc(O)c3c(=O)cc(-c4ccc(O)cc4)oc23)CC1	79.2	4500	56.8	–	–
CCOC(=O)C1CCN(Cc2c(O)cc(O)c3c(=O)cc(-c4ccc(O)cc4)oc23)CC1	92.8	5600	60.3	–	–
O=C(c1ccccc1)N1CCN(Cc2c(O)cc(O)c3c(=O)cc(-c4ccc(O)cc4)oc23)CC1	50.7	2900	57.2	–	–
O=c1cc(-c2ccc(O)cc2)oc2c(CN3CCN(CC4CC4)CC3)c(O)cc(O)c12	54.6	2900	53.1	–	–
O=c1cc(-c2ccc(O)cc2)oc2c(CN3CCN(c4ccccc4O)CC3)c(O)cc(O)c12	37	2000	54	–	–
O=c1cc(-c2ccc(O)cc2)oc2c(CN3CCN(c4ccc(F)cc4)CC3)c(O)cc(O)c12	51.4	2900	56.4	–	–
O=c1cc(-c2ccc(O)cc2)oc2c(CN3CCC(c4ccccc4)CC3)c(O)cc(O)c12	71.9	4000	55.6	–	–
O=C(c1ccc(Cl)cc1)N1CCN(Cc2c(O)cc(O)c3c(=O)cc(-c4ccc(O)cc4)oc23)CC1	56.2	3000	53.4	–	–
O=c1cc(-c2ccc(O)cc2)oc2c(CN3CCN(c4ccccc4)CC3)c(O)cc(O)c12	35.6	2100	59	–	–
COc1ccc(CN2CCN(Cc3c(O)cc(O)c4c(=O)cc(-c5ccc(O)cc5)oc34)CC2)c(OC)c1OC	21.6	1200	55.5	–	–
O=c1cc(-c2ccc(O)cc2)oc2c(CN3CCN(Cc4ccoc4)CC3)c(O)cc(O)c12	43.8	2600	59.4	–	–
Cn1cccc1/C=C1\C(=O)NC(=O)c2ccccc21	–	–	–	40000	88.9
O=C(OCc1ccccc1)N1CCN(Cc2c(O)cc(O)c3c(=O)cc(-c4ccc(O)cc4)oc23)CC1	43.8	2100	47.9	–	–
O=c1cc(-c2ccc(O)cc2)oc2c(CN3CCN(Cc4ccncc4)CC3)c(O)cc(O)c12	19.8	1100	55.5	–	–
Cc1ccc(-c2cc(=O)c3c(O)cc(O)c(-c4cccc(-c5cc(=O)c6c(O)cc(O)cc6o5)c4)c3o2)cc1C	250	12700	50.9	–	–
Cc1ccc(-c2cc(=O)c3c(O)cc(O)c(-c4cccc(-c5cc(=O)c6c(O)cc(O)cc6o5)c4)c3o2)cc1	296	12500	42.2	–	–
Cc1ccc(N2CCN(Cc3c(O)cc(O)c4c(=O)cc(-c5ccc(O)cc5)oc34)CC2)cc1	48.5	2800	57.7	–	–
CC(C)CCN1CCN(Cc2c(O)cc(O)c3c(=O)cc(-c4ccc(O)cc4)oc23)CC1	70.6	3700	52.4	–	–
O=c1cc(-c2ccc(O)cc2)oc2c(CN3CCN(Cc4ccc(C(F)(F)F)cc4)CC3)c(O)cc(O)c12	29.8	1900	63.7	–	–
Cc1cc(C)cc(COC(=O)N2CCN(Cc3c(O)cc(O)c4c(=O)cc(-c5ccc(O)cc5)oc34)CC2)c1	34.6	2000	57.8	–	–
O=c1cc(-c2ccc(O)cc2)oc2c(CN3CCN(c4ccc(C(F)(F)F)cc4)CC3)c(O)cc(O)c12	49.8	2800	56.2	–	–

SMILES	IC50 [1] [nM]	IC50 [2] [nM]	Ratio IC50 (Homo sapiens [3])	IC50 [4] [nM]	Ratio IC50 (Homo sapiens [5])
CC(C)C(=O)N1CCN(Cc2c(O)cc(O)c3c(=O)cc(-c4ccc(O)cc4)oc23)CC1	37.9	2100	55.4	–	–
O=c1cc(-c2ccc(O)cc2)oc2c(CN3CCC(CO)CC3)c(O)cc(O)c12	80.2	4800	59.8	–	–
O=c1cc(-c2cccc(-c3c(O)cc(O)c4c(=O)cc(-c5ccc(F)cc5)oc34)c2)oc2cc(O)cc(O)c12	179	8500	47.4	–	–
O=C(c1ccncc1)N1CCN(Cc2c(O)cc(O)c3c(=O)cc(-c4ccc(O)cc4)oc23)CC1	27.6	1400	50.7	–	–
O=c1cc(-c2ccc(O)cc2)oc2c(CN3CCN(CC4CCCO4)CC3)c(O)cc(O)c12 (centres undefined)	40.4	2500	61.9	–	–
COc1cc(CN2CCN(Cc3c(O)cc(O)c4c(=O)cc(-c5ccc(O)cc5)oc34)CC2)cc(OC)c1	27.2	1700	62.5	–	–
COC(=O)C1CCN(Cc2c(O)cc(O)c3c(=O)cc(-c4ccc(O)cc4)oc23)CC1	97.6	6700	68.6	–	–
O=c1cc(-c2cccc(-c3c(O)cc(O)c4c(=O)cc(-c5ccc(O)c(O)c5)oc34)c2)oc2cc(O)cc(O)c12	642	29500	45.9	–	–
O=C(c1cccnc1)N1CCN(Cc2c(O)cc(O)c3c(=O)cc(-c4ccc(O)cc4)oc23)CC1	26.2	1500	57.2	–	–
O=C(C1CC1)N1CCN(Cc2c(O)cc(O)c3c(=O)cc(-c4ccc(O)cc4)oc23)CC1	37.5	2500	66.7	–	–
O=c1cc(-c2ccc(O)cc2)oc2c(CN3CCN(c4cncnc4)CC3)c(O)cc(O)c12	29.5	1800	61	–	–
O=C(C1CCC1)N1CCN(Cc2c(O)cc(O)c3c(=O)cc(-c4ccc(O)cc4)oc23)CC1	45.5	2600	57.1	–	–
O=c1cc(-c2cccc(-c3c(O)cc(O)c4c(=O)cc(-c5ccc(O)cc5)oc34)c2)oc2cc(O)cc(O)c12	196	10300	52.5	–	–
O=c1cc(-c2ccc(O)cc2)oc2c(CN3CCN(Cc4ccc(Cl)cc4)CC3)c(O)cc(O)c12	31.6	1800	57	–	–
O=C(c1cccc(C(F)(F)F)c1)N1CCN(Cc2c(O)cc(O)c3c(=O)cc(-c4ccc(O)cc4)oc23)CC1	41.9	2900	69.2	–	–
CC(=O)N1CCN(Cc2c(O)cc(O)c3c(=O)cc(-c4ccc(O)cc4)oc23)CC1	42.6	3000	70.4	–	–
O=C(C1CCCCC1)N1CCN(Cc2c(O)cc(O)c3c(=O)cc(-c4ccc(O)cc4)oc23)CC1	44.5	2300	51.7	–	–
O=c1cc(-c2ccc(O)cc2)oc2c(CN3CCN(CC4CCCCC4)CC3)c(O)cc(O)c12	58.3	3200	54.9	–	–
COc1cc(/C=N/NC(N)=S)c(Br)c(Br)c1OC	–	–	–	> 1000	> 33.9
O=c1cc(-c2cccc(-c3c(O)cc(O)c4c(=O)cc(-c5cccs5)oc34)c2)oc2cc(O)cc(O)c12	202	11100	55	–	–
O=c1cc(-c2ccc(O)cc2)oc2c(CN3CCN(c4ccc(Cl)cc4)CC3)c(O)cc(O)c12	60.8	3700	60.8	–	–
O=c1cc(-c2cccc(-c3c(O)cc(O)c4c(=O)cc(-c5ccc(C(F)(F)F)cc5)oc34)c2)oc2cc(O)cc(O)c12	502	26400	52.6	–	–
O=c1cc(-c2ccc(O)cc2)oc2c(CN3CC=C(c4ccccc4)CC3)c(O)cc(O)c12	139	7900	56.6	–	–
COc1ccc(C(=O)N2CCN(Cc3c(O)cc(O)c4c(=O)cc(-c5ccc(O)cc5)oc34)CC2)cc1	43.4	2500	57.6	–	–
O=c1cc(-c2ccc(O)cc2)oc2c(CN3CCN(Cc4ccsc4)CC3)c(O)cc(O)c12	49.8	2800	56.2	–	–
Cc1ccc(CN2CCN(Cc3c(O)cc(O)c4c(=O)cc(-c5ccc(O)cc5)oc34)CC2)cc1	30.6	1800	58.8	–	–
